26 molecules from patent US4880817A, “O-functionalized derivatives of substituted isoquinolin-3-ols having cardiotonic and/or phosphodiesterase fraction III inhibiting properties and/or renal vasodilating properties” (Ortho Pharmaceutical Corporation, priority 1987, dated 1989) can be followed below.

Read-outs that look alike come from different tables or passages of the source.

The subject of the experiment is adult mongrel dogs. Briefly: Renal vasodilating activity in anesthetized dogs. The following applies: for change in vivo at 1.34 mg/kg / change in vivo at 6.2 mg/kg / change in vivo at 1.2 mg/kg: Canis lupus familiaris; for change in vivo at 1.34 mg/kg: dose 1.34 mpk; for MABP: percent change in mean arterial blood pressure / RBF: percent change in renal blood flow / RVR: percent change in renal vascular resistance: 1.2 mg/kg. Type of experiment: in vivo, mongrel dog. As for the experimental part: Goldberg et al., J. Pharmacol. Exp. Ther., 163, 188 (1968), performed an investigation of the structural requirements for dopamine-like renal vasodilation of phenethylamines and apomorphine. The following procedure is a variation of the assay described in that report.
Adult mongrel dogs were anesthetized and surgically prepared for electromagnetic measurement of renal artery blood flow. A carotid artery was cannulated for measuring arterial blood pressure and drugs were administered intravenously or intraarterially (via the renal artery). Heart rate was monitored with a cardiotachometer. Renal vascular resistance was calculated as the ratio of mean arterial blood pressure to renal artery blood flow. Dopamine was infused intravenously at 3 μg/kg/min for ten minutes (at an infusion rate of about 1 ml/min) to determine responsiveness of each dog to renal dopamine receptor stimulation. Cumulative dose-response data were obtained by infusing a compound of this invention at progressively increasing (usually three-fold) infusion rates, each dose being infused for five minutes. The maximum percent change from pre-drug control in renal artery blood flow (or in renal vascular resistance) was determined for each infusion dose.
RBF, RVR, MABP, and HR values are percent changes in renal blood flow, renal vascular resistance, mean arterial blood pressure, and heart rate, respectively, relative to control values.

The mark [1] stands for this setting: dose 6.2 mpk, relative to controls, read-out: HR: percent change in heart rate.
Where [2] appears, read: dose 6.2 mpk, relative to controls, read-out: MABP: percent change in mean arterial blood pressure.
The mark [3] stands for this setting: dose 6.2 mpk, relative to controls, read-out: RBF: percent change in renal blood flow.
[4] abbreviates: dose 6.2 mpk, relative to controls, read-out: RVR: percent change in renal vascular resistance.
[5] abbreviates: read-out: HR: percent change in heart rate, dose 6.2 mpk, relative to controls.
[6] abbreviates: read-out: MABP: percent change in mean arterial blood pressure, dose 6.2 mpk, relative to controls.
The mark [7] stands for this setting: read-out: RBF: percent change in renal blood flow, dose 6.2 mpk, relative to controls.
Where [8] appears, read: read-out: RVR: percent change in renal vascular resistance, dose 6.2 mpk, relative to controls.
[9] abbreviates: dose 1.2 mpk, relative to controls, read-out: HR: percent change in heart rate.
Setting [10] is: dose 1.2 mpk, relative to controls, read-out: MABP: percent change in mean arterial blood pressure.
Where [11] appears, read: dose 1.2 mpk, relative to controls, read-out: RBF: percent change in renal blood flow.
The mark [12] stands for this setting: dose 1.2 mpk, relative to controls, read-out: RVR: percent change in renal vascular resistance.
The mark [13] stands for this setting: dose 1.2 mpk, relative to controls.
The mark [14] stands for this setting: read-out: HR: percent change in heart rate, dose 1.2 mpk, relative to controls.
[15] abbreviates: read-out: MABP: percent change in mean arterial blood pressure, dose 1.2 mpk, relative to controls.
Setting [16] is: read-out: RBF: percent change in renal blood flow, dose 1.2 mpk, relative to controls.
Setting [17] is: read-out: RVR: percent change in renal vascular resistance, dose 1.2 mpk, relative to controls.

On to `COc1cc2c(C)nc(OC(C)=O)c(Br)c2cc1OC` [Cmpd 1], for which the change in vivo at 1.34 mg/kg was 37% (relative to controls, read-out: HR: percent change in heart rate); -21% (relative to controls, read-out: MABP: percent change in mean arterial blood pressure); 22% (relative to controls, read-out: RBF: percent change in renal blood flow); 35% (relative to controls, read-out: RVR: percent change in renal vascular resistance).
For the molecule `COc1cc2c(C)nc(OC(C)=O)c([N+](=O)[O-])c2cc1OC` [Cmpd 2, 3-Acetoxy-6,7-dimethoxy-1-methyl-4-nitroisoquinoline], the change in vivo at 6.2 mg/kg under setting [1] is -2%, the change in vivo at 6.2 mg/kg under setting [2] was -8%, the change in vivo at 6.2 mg/kg under setting [3] was 17% and the change in vivo at 6.2 mg/kg under setting [4] is -16%.
For the molecule `CCOc1cc2c(C)nc(OC(=O)C(C)C)c([N+](=O)[O-])c2cc1OC` [Cmpd 5], the change in vivo at 6.2 mg/kg is 36% under setting [1], -10% under setting [2], 42% under setting [3] and -36% under setting [4].
With `CCOc1cc2c(C)nc(OS(C)(=O)=O)c([N+](=O)[O-])c2cc1OC` [Cmpd 6], the change in vivo at 6.2 mg/kg by setting is: under setting [1], -10%; under setting [2], -2%; under setting [3], 38%; under setting [4], -28%.
On to `COc1cc2c(C)nc(OC(=O)c3ccc(Cl)cc3)c([N+](=O)[O-])c2cc1OC` [Cmpd 15], for which the change in vivo at 6.2 mg/kg reads like this: under setting [1], 3%; under setting [2], -1%; under setting [3], 15%; under setting [4], -14%.
As to `COc1cc2c(C)nc(OS(C)(=O)=O)c([N+](=O)[O-])c2cc1OC` [Cmpd 16], the change in vivo at 6.2 mg/kg is 19% under setting [1], -6% under setting [2], 12% under setting [3] and -16% under setting [4].
For `COc1cc2c(C)nc(OC(C)=O)c(N(C(C)=O)C(C)=O)c2cc1OC` [Cmpd 17, 4-N,N-Diacetamido-3-acetoxy-6,7-dimethoxy-1-methylisoquinoline], in that order: -12%, 13%, 63% and -24%.
Take `CCOc1cc2c([N+](=O)[O-])c(OC(=O)N(C)C)nc(C)c2cc1OC` [Cmpd 24]: the change in vivo at 6.2 mg/kg reads like this: under setting [5], 53%; under setting [6], -12%; under setting [7], 22%; under setting [8], -28%.
For `COc1ccc(NC(=O)Nc2c(OC(C)=O)nc(C)c3cc(OC)c(OC)cc23)cc1` [Cmpd 32], the change in vivo at 1.2 mg/kg was -23% under setting [9], 1% under setting [10], 6% under setting [11] and -4% under setting [12].
For `CCCCNC(=O)Nc1c(OC(=O)N(CC)CC)nc(C)c2cc(OC)c(OC)cc12` [Cmpd 38, 4-[N'-(n-Butylureido)]-3-diethylcarbamyloxy-6,7-dimethoxy-1-methylisoquinoline], the change in vivo at 6.2 mg/kg was -4% under setting [5], 5% under setting [6], 34% under setting [7] and -21% under setting [8].
Regarding `C=CCNC(=O)Nc1c(OC(=O)N(C)C)nc(C)c2cc(OC)c(OC)cc12` [Cmpd 40], under setting [13], the “MABP: percent change in mean arterial blood pressure” value is -1 percent change, the “RBF: percent change in renal blood flow” value is listed as “+9 percent change” and the “RVR: percent change in renal vascular resistance” value was -9 percent change.
Turning to `CCCCNC(=O)Nc1c(OC(=O)N(CC)CC)nc(C)c2cc(OCC)c(OC)cc12` [Cmpd 45], the change in vivo at 1.2 mg/kg under setting [14] turned out to be 11%, the change in vivo at 1.2 mg/kg under setting [15] amounted to 12%, the change in vivo at 1.2 mg/kg under setting [16] is 15% and the change in vivo at 1.2 mg/kg under setting [17] was -2%.
Taken in the same sequence, the figures for `CCN(CC)C(=O)Oc1nc(C)c2cc(OC)c(OC)cc2c1NC(N)=O` [Cmpd 47, 3-Diethylcarbamyloxy-6,7-dimethoxy-1-methyl-4-ureidoisoquinoline] were -3%, 11%, 17% and -4%.
With `C=CCNC(=O)N(C(=O)NCC=C)c1c(OC(=O)N(CC)CC)nc(C)c2cc(OC)c(OC)cc12` [Cmpd 49], the change in vivo at 1.2 mg/kg reads like this: under setting [9], -6%; under setting [10], 2%; under setting [11], 14%; under setting [12], -8%.
With `C=CCNC(=O)Nc1c(OC(=O)N(CC)CC)nc(C)c2cc(OC)c(OC)cc12` [Cmpd 50], the change in vivo at 1.2 mg/kg is -2% under setting [14], 0% under setting [15], 20% under setting [16] and -16% under setting [17].
Regarding `CCN(CC)C(=O)Oc1nc(C)c2cc(OC)c(OC)cc2c1NC(=O)Nc1ccc(OC)cc1` [Cmpd 51], the change in vivo at 1.2 mg/kg is 25% under setting [9], -6% under setting [10], 17% under setting [11] and -20% under setting [12].
Regarding `COc1cc2c(C)nc(OC(=O)N3CCCC3)c([N+](=O)[O-])c2cc1OC` [Cmpd 52], the change in vivo at 6.2 mg/kg under setting [5] is 0%, the change in vivo at 6.2 mg/kg under setting [6] is -15%, the change in vivo at 6.2 mg/kg under setting [7] is 41% and the change in vivo at 6.2 mg/kg under setting [8] is -37%.
Regarding `CCCCNC(=O)Nc1c(OC(=O)N2CCCC2)nc(C)c2cc(OC)c(OC)cc12` [Cmpd 55], the change in vivo at 1.2 mg/kg by setting is: under setting [14], 2%; under setting [15], -4%; under setting [16], 14%; under setting [17], -14%.
Taken in the same sequence, the figures for `CCCCNC(=O)Nc1c(OC(=O)N(c2ccccc2)c2ccccc2)nc(C)c2cc(OC)c(OC)cc12` [Cmpd 57] were 7%, 4%, 28% and -18%.
As to `C=CCNC(=O)Nc1c(OC(=O)N2CCCC2)nc(C)c2cc(OC)c(OC)cc12` [Cmpd 59], the change in vivo at 1.2 mg/kg is 2% under setting [14], 1% under setting [15], 23% under setting [16] and -16% under setting [17].
Take `C=CCNC(=O)Nc1c(OC(=O)N(c2ccccc2)c2ccccc2)nc(C)c2cc(OC)c(OC)cc12` [Cmpd 60]: the change in vivo at 1.2 mg/kg was 8% under setting [14], 4% under setting [15], 27% under setting [16] and -17% under setting [17].
Consider `CCCCNC(=O)Nc1c(OC(=O)N(C(C)C)C(C)C)nc(C)c2cc(OC)c(OC)cc12` [Cmpd 61], for which the change in vivo at 1.2 mg/kg runs as follows: under setting [14], 11%; under setting [15], -1%; under setting [16], 47%; under setting [17], -32%.
Consider `C=CCNC(=O)Nc1c(OC(=O)N(C(C)C)C(C)C)nc(C)c2cc(OC)c(OC)cc12` [Cmpd 62], for which the change in vivo at 1.2 mg/kg reads like this: under setting [14], 0%; under setting [15], 11%; under setting [16], 17%; under setting [17], -5%.
As for `CCCCNC(=O)Nc1c(OS(=O)(=O)N(C)C)nc(C)c2cc(OC)c(OC)cc12` [Cmpd 64], the change in vivo at 1.2 mg/kg by setting is: under setting [9], 0%; under setting [10], 4%; under setting [11], 15%; under setting [12], -9%.
Consider `C=CCNC(=O)Nc1c(OS(=O)(=O)N(C)C)nc(C)c2cc(OC)c(OC)cc12` [Cmpd 65], for which the change in vivo at 1.2 mg/kg under setting [9] is -7%, the change in vivo at 1.2 mg/kg under setting [10] is -1%, the change in vivo at 1.2 mg/kg under setting [11] was 25% and the change in vivo at 1.2 mg/kg under setting [12] was -22%.
Consider `C=CCNC(=O)Nc1c(OC(=O)N(C)C)nc(C)c2cc(OC)c(OC)cc12` [Cmpd 67], for which the change in vivo at 1.2 mg/kg under setting [14] is 0%. Under setting [13], the “MABP: percent change in mean arterial blood pressure” value was “+7 percent change”, the “RBF: percent change in renal blood flow” value was “+50 percent change” and the “RVR: percent change in renal vascular resistance” value is given as -28 percent change.
